Assays:
[1] = target: T1, RORγt ligand-binding domain (RORγt-LBD) (Homo sapiens, UniProt P51449); test: Time-resolved FRET (TR-FRET) RORγt coactivator assay (RIP140 peptide displacement); assay type: biochemical; conditions: ligand-dependent coactivator-RORγt binding
T1 construct: 20 nM recombinantly expressed RORγ-LBD fused to GST
T1 sequence (P51449 269-508 limits assumed): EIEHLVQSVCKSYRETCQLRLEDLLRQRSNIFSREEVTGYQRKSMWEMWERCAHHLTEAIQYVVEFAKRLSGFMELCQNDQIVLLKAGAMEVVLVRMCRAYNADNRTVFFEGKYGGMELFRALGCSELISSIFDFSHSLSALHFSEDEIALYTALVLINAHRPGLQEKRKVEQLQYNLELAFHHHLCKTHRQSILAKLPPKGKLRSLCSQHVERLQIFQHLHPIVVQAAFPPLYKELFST
Excerpt: Time-resolved FRET (TR-FRET) RORγt coactivator assay was used to identify RORγ modulator compounds with ligand-dependent coactivator displacement. The assay uses a d2-labeled anti-GST antibody, synthetic N-terminally biotinylated peptide which is derived from nuclear receptor coactivator protein RIP140, and a RORγt ligand-binding domain (RORγt-LBD) that is tagged with glutathione-S-transferase (GST). The influence of compounds on the RORγ-peptide interaction relies on the binding dependent energy transfer from a donor to an acceptor fluorophor attached to the binding partner of interest. […] For reduction of background from compound fluorescence, TR-FRET method makes use of generic fluorophore labels and time resolved detection.
The assays were done in a final volume of 20 μl in a 384 well plate in a CHAPS buffer (2 mM CHAPS; 1 mM DTT, 2 mM EDTA; 0.1% BSA), containing 20 nM recombinantly expressed RORγ-LBD fused to GST, 30 nM N-terminally biotinylated peptide, 1 nM streptavidin-terbium conjugate and 20 nM d2 labeled-anti-GST. Test compounds were diluted using 10 mM stock solution. The range of the final compound concentrations used in this test was from 0.3 nM to 30 μM (logarithmic scale). DMSO content of the samples was kept at 1%. The assay was equilibrated for 2 hours in the dark at room temperature in 384 well plates (Falcon). The signal was detected by an Ultra384 reader (TECAN). […] Compounds that promote coactivator displacement induce a concentration-dependent decrease in time-resolved fluorescent signal. Data were collected and analyzed using GraphPad Prism software (GraphPad Software V5.02, San Diego Calif. USA). IC50 in μM and E max in % were reported for each compound.

human RORγt = target: T2, human RORγt (Homo sapiens, UniProt P51449); test: RORE Luciferase/RORγt transactivation assay (IL-17 promoter luciferase reporter in COS-7 cells); assay type: cell-based; set-up: V5-His (named only through the vector pcDNA3.1D/V5-His-TOPO); expressed in transfected cells; host or cells: COS-7 (monkey kidney); conditions: RORγt activity inhibition, luciferase activity in transfected COS-7 cells, 20 h
T2 sequence (P51449 1-497 isoform P51449-2): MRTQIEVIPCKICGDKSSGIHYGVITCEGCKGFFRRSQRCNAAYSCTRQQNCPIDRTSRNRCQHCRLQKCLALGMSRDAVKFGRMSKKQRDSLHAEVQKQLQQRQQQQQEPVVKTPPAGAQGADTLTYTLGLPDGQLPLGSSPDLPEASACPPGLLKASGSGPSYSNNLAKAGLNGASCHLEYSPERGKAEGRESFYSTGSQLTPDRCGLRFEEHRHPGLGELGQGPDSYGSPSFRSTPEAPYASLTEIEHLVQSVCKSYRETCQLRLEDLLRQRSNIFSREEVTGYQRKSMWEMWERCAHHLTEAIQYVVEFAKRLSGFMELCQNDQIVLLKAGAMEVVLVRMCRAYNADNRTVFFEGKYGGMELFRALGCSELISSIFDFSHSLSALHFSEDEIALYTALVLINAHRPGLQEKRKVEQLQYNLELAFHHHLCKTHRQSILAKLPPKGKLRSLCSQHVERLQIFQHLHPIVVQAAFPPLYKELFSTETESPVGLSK
Method: It is well known that RORγ binds to a conserved non-coding sequence (CNS) enhancer element in the IL-17 promoter.
Culture medium was changed every 2 days.
The 4.3 Kb human IL-17 promoter containing the RORγ-specific CNS enhancer element was PCR amplified from human genomic DNA and cloned into a pGL3-TKLuc2Cp reporter plasmid.
The luciferase reporter plasmid and the RORγt overexpression plasmid were transfected into COS-7 cell line using 4 μL JetPEI™/μg of DNA. Briefly, 150 ng of DNA (ration 1/2 between RORE-Tk Luc2Cp and cDNA RORγt or the empty vector for the negative control) was served to transfect adherent COS-7 cells in a […] culture flask, in complete medium (see cos-7 cell line culture).
Cells were then detached (using trypsin) and washed by centrifugation at 300 g for 10 minutes. Cell pellet was resuspended in serum free/phenol red free DMEM and seeded in 384 well plates at a density of 10000 cells/well and then incubated for 4 h at 37° C.
Compounds were dissolved in 100% DMSO to obtain 10 mM stock solutions. For each compound, test concentrations were diluted in serum free/phenol red free DMEM using the Genesis Freedom 200™ (TECAN) and added to the cells to obtain a 0.3% DMSO final concentration (in a final volume of 40 μL per well).
The luciferase activity was then measured with 40 μL/well steady-Glo Luciferase assay system (Promega, Madison, Wis.) and after incubation at room temperature for 30 minutes. The luminescence was estimated using the Ultra384 reader (TECAN). Data were collected and analyzed using GraphPad Prism software (GraphPad Software V5.02, San Diego Calif. USA). IC50 in μM and E max in % were reported for each compound.

With `COc1ccc(CC(=O)NC(c2ccc(C)o2)c2ccc(C)cc2N2CCCCC2)cc1N1CCS(=O)(=O)CC1` (stereo not drawn) [Cpd. 30, 2-[3-(1,1-dioxo-1-thiomorpholin-4-yl)-4-methoxyphenyl]-N-{[4-methyl-2-(piperidin-1-yl)phenyl](5-methylfuran-2-yl)methyl}acetamide] the IC50 [1] was 100 to 1000 nM and the IC50 (human RORγt) was 100 to 1000 nM.

`Cc1ccc(C(NC(=O)Cc2cnc(N3CCS(=O)(=O)CC3)nc2)c2ccc(C)o2)c(Br)c1` (stereo not drawn) [Cpd. 34, N-[(2-bromo-4-methylphenyl)(5-methylfuran-2-yl)methyl]-2-[2-(1,1-dioxo-1-thiomorpholin-4-yl)pyrimidin-5-yl]acetamide] gave an IC50 [1] of 100 to 1000 nM and an IC50 (human RORγt) of 100 to 1000 nM.

Work on `Cc1ccc(C(NC(=O)Cc2cnc(N3CCS(=O)(=O)CC3)nc2)c2ccc(C)o2)c(C)c1` (stereo not drawn) [Cpd. 35, N-[(2,4-dimethylphenyl)(5-methylfuran-2-yl)methyl]-2-[2-(1,1-dioxo-1-thiomorpholin-4-yl)pyrimidin-5-yl]acetamide] yielded an IC50 [1] of 100 to 1000 nM and an IC50 (human RORγt) of 1000 to 10000 nM.

With `Cc1ccc(C(NC(=O)Cc2cnc(N3CCS(=O)(=O)CC3)nc2)c2ccc(C)o2)c(N2CC3CC3C2)c1` (stereo not drawn) [Cpd. 36, N-[(2-{3-azabicyclo[3.1.0]hexan-3-yl}-4-methylphenyl)(5-methylfuran-2-yl)methyl]-2-[2-(1,1-dioxo-1-thiomorpholin-4-yl)pyrimidin-5-yl]acetamide] the IC50 [1] was less than 1000 nM and the IC50 (human RORγt) was 100 to 1000 nM.

In the case of `Cc1ccc(C(NC(=O)C2(c3ccc(N4CCS(=O)(=O)CC4)c(Br)c3)CC2)c2ccc(C)o2)c(N2CCCCC2)c1` (stereo not drawn) [Cpd. 37, 1-[3-bromo-4-(1,1-dioxo-1-thiomorpholin-4-yl)phenyl]-N-{[4-methyl-2-(piperidin-1-yl)phenyl](5-methylfuran-2-yl)methyl}cyclopropane-1-carboxamide], the IC50 [1] is reported as 100 to 1000 nM and the IC50 (human RORγt) is reported as less than 100 nM.

`Cc1ccc(C(NC(=O)C(C)(C)c2ccc(N3CCS(=O)(=O)CC3)cc2)c2ccc(C)o2)c(C)c1` (stereo not drawn) [Cpd. 40, N-[(2,4-dimethylphenyl)(5-methylfuran-2-yl)methyl]-2-[4-(1,1-dioxo-1-thiomorpholin-4-yl)phenyl]-2-methylpropanamide] was tested, and the IC50 [1] was less than 1000 nM and the IC50 (human RORγt) was 100 to 1000 nM.

`Cc1ccc(C(NC(=O)C2(c3ccc(N4CCS(=O)(=O)CC4)cc3)CCC2)c2ccc(C)o2)c(C)c1` (stereo not drawn) [Cpd. 41, N-[(2,4-dimethylphenyl)(5-methylfuran-2-yl)methyl]-1-[4-(1,1-dioxo-1-thiomorpholin-4-yl)phenyl]cyclobutane-1-carboxamide] was tested, and the IC50 [1] was less than 1000 nM and the IC50 (human RORγt) was 100 to 1000 nM.

Compound `Cc1ccc(C(NC(=O)Cc2cnc(N3CCS(=O)(=O)CC3)nc2C)c2ccc(C)o2)c(C)c1` (stereo not drawn) [Cpd. 42, N-[(2,4-dimethylphenyl)(5-methylfuran-2-yl)methyl]-2-[2-(1,1-dioxo-1-thiomorpholin-4-yl)-4-methylpyrimidin-5-yl]acetamide] has an IC50 [1] of 1000 to 10000 nM and an IC50 (human RORγt) of 1000 to 10000 nM.

Work on `Cc1ccc(C(NC(=O)Cc2ccc(O)c(N3CCS(=O)(=O)CC3)c2)c2ccc(C)o2)c(C)c1` (stereo not drawn) [Cpd. 43, N-[(2,4-dimethylphenyl)(5-methylfuran-2-yl)methyl]-2-[3-(1,1-dioxo-1-thiomorpholin-4-yl)-4-hydroxyphenyl]acetamide] yielded an IC50 [1] of less than 1000 nM and an IC50 (human RORγt) of 1000 to 10000 nM.

`COc1ccc(C(NC(=O)C2(c3ccc(N4CCS(=O)(=O)CC4)cc3)CC2)c2ccc(C)o2)c(C)c1` (stereo not drawn) [Cpd. 44, 1-[4-(1,1-dioxo-1-thiomorpholin-4-yl)phenyl]-N-[(4-methoxy-2-methylphenyl)(5-methylfuran-2-yl)methyl]cyclopropane-1-carboxamide] showed an IC50 [1] of less than 1000 nM and an IC50 (human RORγt) of less than 100 nM.

`COc1ccc(C(NC(=O)Cc2cnc(N3CCS(=O)(=O)CC3)nc2)c2ccc(C)o2)c(N2CCCCCC2)c1` (stereo not drawn) [Cpd. 45, N-{[2-(azepan-1-yl)-4-methoxyphenyl](5-methylfuran-2-yl)methyl}-2-[2-(1,1-dioxo-1-thiomorpholin-4-yl)pyrimidin-5-yl]acetamide] gave an IC50 [1] of less than 1000 nM and an IC50 (human RORγt) of 100 to 1000 nM.

`Cc1ccc(C(NC(=O)Cc2ccc(N3CCS(=O)(=O)CC3)cn2)c2ccc(C)o2)c(N2CCCCC2)c1` (stereo not drawn) [Cpd. 47, 2-[5-(1,1-dioxo-1-thiomorpholin-4-yl)pyridin-2-yl]-N-{[4-methyl-2-(piperidin-1-yl)phenyl](5-methylfuran-2-yl)methyl}acetamide] gave an IC50 [1] of less than 1000 nM and an IC50 (human RORγt) of less than 100 nM.

Work on `Cc1ccc(C(NC(=O)C2(c3ccc(N4CCS(=O)(=O)CC4)cc3)CCC2)c2ccc(C)o2)c(N2CCCCC2)c1` (stereo not drawn) [Cpd. 55, 1-[4-(1,1-dioxo-1-thiomorpholin-4-yl)phenyl]-N-{[4-methyl-2-(piperidin-1-yl)phenyl](5-methylfuran-2-yl)methyl}cyclobutane-1-carboxamide] yielded an IC50 [1] of 100 to 1000 nM and an IC50 (human RORγt) of 100 to 1000 nM.

Compound `Cc1ccc(C(NC(=O)C(C)(C)c2ccc(N3CCS(=O)(=O)CC3)cc2)c2ccc(C)o2)c(N2CCCCC2)c1` (stereo not drawn) [Cpd. 56, 2-[4-(1,1-dioxo-1-thiomorpholin-4-yl)phenyl]-2-methyl-N-{[4-methyl-2-(piperidin-1-yl)phenyl](5-methylfuran-2-yl)methyl}propanamide] has an IC50 [1] of 100 to 1000 nM and an IC50 (human RORγt) of 100 to 1000 nM.

`Cc1ccc(C(NC(=O)C2(c3cccc(N4CCS(=O)(=O)CC4)c3)CC2)c2ccc(C)o2)c(N2CCCCC2)c1` (stereo not drawn) [Cpd. 58, 1-[3-(1,1-dioxo-1-thiomorpholin-4-yl)phenyl]-N-{[4-methyl-2-(piperidin-1-yl)phenyl](5-methylfuran-2-yl)methyl}cyclopropane-1-carboxamide] showed an IC50 [1] of less than 1000 nM and an IC50 (human RORγt) of 100 to 1000 nM.

For `Cc1ccc(C(NC(=O)C2(c3ccc(N4CCS(=O)(=O)CC4)cc3)CC2)c2ccc(C)o2)c(C)c1` (stereo not drawn) [Cpd. 64, N-[(2,4-dimethylphenyl)(5-methylfuran-2-yl)methyl]-1-[4-(1,1-dioxo-1-thiomorpholin-4-yl)phenyl]cyclopropane-1-carboxamide], the IC50 [1] was 1000 to 10000 nM and the IC50 (human RORγt) was 100 to 1000 nM.

Work on `Cc1ccc(C(NC(=O)Cc2ncc(N3CCS(=O)(=O)CC3)cn2)c2ccc(C)o2)c(N2CCCCC2)c1` (stereo not drawn) [Cpd. 65, 2-[5-(1,1-dioxo-1-thiomorpholin-4-yl)pyrimidin-2-yl]-N-{[4-methyl-2-(piperidin-1-yl)phenyl](5-methylfuran-2-yl)methyl}acetamide] yielded an IC50 [1] of less than 1000 nM and an IC50 (human RORγt) of less than 100 nM.

`Cc1ccc(C(NC(=O)C2(c3ccc(N4CCS(=O)(=O)CC4)cc3)CC2)c2ccc(Cl)o2)cc1` (stereo not drawn) [Cpd. 67, N-[(5-chlorofuran-2-yl)(4-methylphenyl)methyl]-1-[4-(1,1-dioxo-1-thiomorpholin-4-yl)phenyl]cyclopropane-1-carboxamide] was tested, and the IC50 [1] was less than 1000 nM and the IC50 (human RORγt) was less than 100 nM.

Reference: patent US11077115B2, “Rorgamma modulators and uses thereof” (Genfit, priority 2017, dated 2021)
